Tested on: IGROV1 complex spheroids (HUVEC, MSC), viability % test/control
Assay: Anticancer human tumor IGROV1 cell line growth inhibition [GQUAD];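 also: spheroids exposed to compounds for 7 days before readout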;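 as to viability, T/C: 100% = DMSO vehicle control viability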
Settings: for IC50: curve of first compound; for viability, T/C: stronger effect = lower value
Procedure, shortened: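 Viability of tumor cells grown as complex spheroids with endothelial and stromal cells, exposed to drug combinations. Top concentration at or near clinical Cmax (else 10 microM), diluted in half-log increments.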

[1] = second compound 0.0316 µM, first compound 0.000999 µM
[2] = second compound 0.0316 µM, first compound 0.00316 µM
[3] = second compound 0.0316 µM, first compound 0.00999 µM
[4] = second compound 0.0316 µM, first compound 0.0316 µM
[5] = second compound 0.0316 µM, first compound 0.0999 µM
[6] = second compound 0.0316 µM, first compound 0.316 µM
[7] = second compound 0.1 µM, first compound 0.000999 µM
[8] = second compound 0.1 µM, first compound 0.00316 µM
[9] = second compound 0.1 µM, first compound 0.00999 µM
[10] = second compound 0.1 µM, first compound 0.0316 µM
[11] = second compound 0.1 µM, first compound 0.0999 µM
[12] = second compound 0.1 µM, first compound 0.316 µM
[13] = second compound 0.316 µM, first compound 0.000999 µM
[14] = second compound 0.316 µM, first compound 0.00316 µM
[15] = second compound 0.316 µM, first compound 0.00999 µM
[16] = second compound 0.316 µM, first compound 0.0316 µM
[17] = second compound 0.316 µM, first compound 0.0999 µM
[18] = second compound 0.316 µM, first compound 0.316 µM
[19] = second compound 1 µM, first compound 0.000999 µM
[20] = second compound 1 µM, first compound 0.00316 µM
[21] = second compound 1 µM, first compound 0.00999 µM
[22] = second compound 1 µM, first compound 0.0316 µM
[23] = second compound 1 µM, first compound 0.0999 µM
[24] = second compound 1 µM, first compound 0.316 µM
[25] = second compound 3.16 µM, first compound 0.000999 µM
[26] = second compound 3.16 µM, first compound 0.00316 µM
[27] = second compound 3.16 µM, first compound 0.00999 µM
[28] = second compound 3.16 µM, first compound 0.0316 µM
[29] = second compound 3.16 µM, first compound 0.0999 µM
[30] = second compound 3.16 µM, first compound 0.316 µM
[31] = second compound 10 µM, first compound 0.000999 µM
[32] = second compound 10 µM, first compound 0.00316 µM
[33] = second compound 10 µM, first compound 0.00999 µM
[34] = second compound 10 µM, first compound 0.0316 µM
[35] = second compound 10 µM, first compound 0.0999 µM
[36] = second compound 10 µM, first compound 0.316 µM
[37] = second compound 0.0316 µM, first compound 0.1 µM
[38] = second compound 0.0316 µM, first compound 1 µM
[39] = second compound 0.0316 µM, first compound 3.16 µM
[40] = second compound 0.0316 µM, first compound 10 µM
[41] = second compound 0.1 µM, first compound 0.1 µM
[42] = second compound 0.1 µM, first compound 1 µM
[43] = second compound 0.1 µM, first compound 3.16 µM
[44] = second compound 0.1 µM, first compound 10 µM
[45] = second compound 0.316 µM, first compound 0.1 µM
[46] = second compound 0.316 µM, first compound 1 µM
[47] = second compound 0.316 µM, first compound 3.16 µM
[48] = second compound 0.316 µM, first compound 10 µM
[49] = second compound 1 µM, first compound 0.1 µM
[50] = second compound 1 µM, first compound 1 µM
[51] = second compound 1 µM, first compound 3.16 µM
[52] = second compound 1 µM, first compound 10 µM
[53] = second compound 3.16 µM, first compound 0.1 µM
[54] = second compound 3.16 µM, first compound 1 µM
[55] = second compound 3.16 µM, first compound 3.16 µM
[56] = second compound 3.16 µM, first compound 10 µM
[57] = second compound 10 µM, first compound 0.1 µM
[58] = second compound 10 µM, first compound 1 µM
[59] = second compound 10 µM, first compound 3.16 µM
[60] = second compound 10 µM, first compound 10 µM

For Cn1ncnc1[C@H]1c2n[nH]c(=O)c3cc(F)cc(c23)N[C@@H]1c1ccc(F)cc1 + CN(C)c1ccc(Nc2c3ccc(NC(=O)CCN4CCCC4)cc3nc3cc(NC(=O)CCN4CCCC4)ccc23)cc1, the IC50 (second compound 0.0316 µM) was 89.6 nM, the IC50 (second compound 0.1 µM) was 42.8 nM and the IC50 (second compound 0.316 µM) was 127 nM. For the same compound, the IC50 (second compound 1 µM) was 93.4 nM, the IC50 (second compound 3.16 µM) was 56.5 nM and the IC50 (second compound 10 µM) was < 0.999 nM. For the same compound, the viability, T/C [1] was 99.9%, the viability, T/C [2] was 88.4% and the viability, T/C [3] was 95.1%. The viability, T/C [4] was 57%, the viability, T/C [5] was 58.4% and the viability, T/C [6] was 40.1%. The viability, T/C [7] was 101%, the viability, T/C [8] was 82.3% and the viability, T/C [9] was 68.2%. The viability, T/C [10] was 46.2%, the viability, T/C [11] was 49.7% and the viability, T/C [12] was 35.9%. For the same compound, the viability, T/C [13] was 95.7%, the viability, T/C [14] was 77.7% and the viability, T/C [15] was 81.3%. It also gave a viability, T/C [16] of 52.2%, a viability, T/C [17] of 61.5% and a viability, T/C [18] of 38.4%. It also gave a viability, T/C [19] of 90.6%, a viability, T/C [20] of 79% and a viability, T/C [21] of 64.9%. It also gave a viability, T/C [22] of 65.4%, a viability, T/C [23] of 57% and a viability, T/C [24] of 28.8%. For the same compound, the viability, T/C [25] was 86.2%, the viability, T/C [26] was 79.4% and the viability, T/C [27] was 70.6%. The viability, T/C [28] was 58.1%, the viability, T/C [29] was 42.1% and the viability, T/C [30] was 29.6%. The viability, T/C [31] was 47.8%, the viability, T/C [32] was 40.2% and the viability, T/C [33] was 35.8%. The viability, T/C [34] was 35.1%, the viability, T/C [35] was 26.9% and the viability, T/C [36] was 19.2%.
In the case of CC(C)n1c(=O)n(C)c2cnc3cc(F)c(-c4ccc(OCCCN5CCCCC5)nc4)cc3c21 + CN(C)c1ccc(Nc2c3ccc(NC(=O)CCN4CCCC4)cc3nc3cc(NC(=O)CCN4CCCC4)ccc23)cc1, the IC50 (second compound 0.0316 µM) is reported as 3960 nM, the IC50 (second compound 0.1 µM) is reported as 3780 nM and the IC50 (second compound 0.316 µM) is reported as 4030 nM. For the same compound, the IC50 (second compound 1 µM) was 1500 nM, the IC50 (second compound 3.16 µM) was < 31.6 nM and the IC50 (second compound 10 µM) was < 31.6 nM. It also gave a viability, T/C [4] of 91.8%, a viability, T/C [37] of 70.1% and a viability, T/C [6] of 90.8%. For the same compound, the viability, T/C [38] was 72.2%, the viability, T/C [39] was 59.2% and the viability, T/C [40] was 15.5%. It also gave a viability, T/C [10] of 93.3%, a viability, T/C [41] of 59.2% and a viability, T/C [12] of 87.3%. The viability, T/C [42] was 72%, the viability, T/C [43] was 55.2% and the viability, T/C [44] was 18%. The viability, T/C [16] was 86.1%, the viability, T/C [45] was 69.6% and the viability, T/C [18] was 83.4%. The viability, T/C [46] was 74.8%, the viability, T/C [47] was 58.9% and the viability, T/C [48] was 16.7%. It also gave a viability, T/C [22] of 54.6%, a viability, T/C [49] of 53.1% and a viability, T/C [24] of 58.9%. It also gave a viability, T/C [50] of 55.6%, a viability, T/C [51] of 40% and a viability, T/C [52] of 13%. It also gave a viability, T/C [28] of 49.7%, a viability, T/C [53] of 39.4% and a viability, T/C [30] of 27%. It also gave a viability, T/C [54] of 21.9%, a viability, T/C [55] of 19.8% and a viability, T/C [56] of 10.7%. The viability, T/C [34] was 18.3%, the viability, T/C [57] was 18.8% and the viability, T/C [36] was 11.4%. The viability, T/C [58] was 10.5%, the viability, T/C [59] was 7.56% and the viability, T/C [60] was 3.54%.
For CCc1c2c(nc3ccc(O)cc13)-c1cc3c(c(=O)n1C2)COC(=O)[C@]3(O)CC + CN(C)c1ccc(Nc2c3ccc(NC(=O)CCN4CCCC4)cc3nc3cc(NC(=O)CCN4CCCC4)ccc23)cc1, the IC50 (second compound 0.0316 µM) was 1.22 nM, the IC50 (second compound 0.1 µM) was 1.05 nM and the IC50 (second compound 0.316 µM) was < 0.999 nM. For the same compound, the IC50 (second compound 1 µM) was < 0.999 nM, the IC50 (second compound 3.16 µM) was < 0.999 nM and the IC50 (second compound 10 µM) was < 0.999 nM. The viability, T/C [1] was 57.5%, the viability, T/C [2] was 15.8% and the viability, T/C [3] was 11.4%. The viability, T/C [4] was 7.01%, the viability, T/C [5] was 5.52% and the viability, T/C [6] was 1.54%. The viability, T/C [7] was 51.9%, the viability, T/C [8] was 15.3% and the viability, T/C [9] was 11.3%. For the same compound, the viability, T/C [10] was 8.79%, the viability, T/C [11] was 5.38% and the viability, T/C [12] was 1.47%. It also gave a viability, T/C [13] of 49.7%, a viability, T/C [14] of 16.7% and a viability, T/C [15] of 9.1%. The viability, T/C [16] was 8.69%, the viability, T/C [17] was 3.87% and the viability, T/C [18] was 1.5%. The viability, T/C [19] was 49.5%, the viability, T/C [20] was 13.7% and the viability, T/C [21] was 9.93%. The viability, T/C [22] was 8.16%, the viability, T/C [23] was 5.08% and the viability, T/C [24] was 2.04%. The viability, T/C [25] was 42.3%, the viability, T/C [26] was 11.4% and the viability, T/C [27] was 8.41%. It also gave a viability, T/C [28] of 8.25%, a viability, T/C [29] of 5.52% and a viability, T/C [30] of 1.58%. The viability, T/C [31] was 20.3%, the viability, T/C [32] was 10.7% and the viability, T/C [33] was 9.09%. It also gave a viability, T/C [34] of 5.5%, a viability, T/C [35] of 2.71% and a viability, T/C [36] of 2.02%.
For O=C(c1cc(Cc2n[nH]c(=O)c3ccccc23)ccc1F)N1CCN(C(=O)C2CC2)CC1 + Cc1cnc(CNC(=O)c2c(=O)c3ccc(N4CCCN(C)CC4)nc3n3c2sc2ccccc23)cn1, the IC50 (second compound 0.0316 µM) was 1610 nM, the IC50 (second compound 0.1 µM) was < 31.6 nM and the IC50 (second compound 0.316 µM) was < 31.6 nM. For the same compound, the IC50 (second compound 1 µM) was < 31.6 nM, the IC50 (second compound 3.16 µM) was < 31.6 nM and the IC50 (second compound 10 µM) was < 31.6 nM. The viability, T/C [4] was 58.6%, the viability, T/C [37] was 73% and the viability, T/C [6] was 53.6%. The viability, T/C [38] was 55.8%, the viability, T/C [39] was 43.5% and the viability, T/C [40] was 20.8%. The viability, T/C [10] was 42.1%, the viability, T/C [41] was 39.9% and the viability, T/C [12] was 34%. For the same compound, the viability, T/C [42] was 27.9%, the viability, T/C [43] was 24.2% and the viability, T/C [44] was 17.8%. For the same compound, the viability, T/C [16] was 22.4%, the viability, T/C [45] was 27.7% and the viability, T/C [18] was 24%. For the same compound, the viability, T/C [46] was 23.5%, the viability, T/C [47] was 16.9% and the viability, T/C [48] was 18.1%. For the same compound, the viability, T/C [22] was 14.4%, the viability, T/C [49] was 17.3% and the viability, T/C [24] was 18.9%. It also gave a viability, T/C [50] of 16.9%, a viability, T/C [51] of 16% and a viability, T/C [52] of 12.9%. The viability, T/C [28] was 9.91%, the viability, T/C [53] was 10.6% and the viability, T/C [30] was 10.1%. The viability, T/C [54] was 10.6%, the viability, T/C [55] was 11.1% and the viability, T/C [56] was 10.5%. It also gave a viability, T/C [34] of 8.62%, a viability, T/C [57] of 11.4% and a viability, T/C [36] of 9.01%. For the same compound, the viability, T/C [58] was 8.13%, the viability, T/C [59] was 9.75% and the viability, T/C [60] was 9.07%.
